From ChEMBL document CHEMBL1165975, “Synthesis, molecular modeling and biological evaluation of dithiocarbamates as novel antitubulin agents” (Bioorg Med Chem, 2010)

Tests used:
[1] = Inhibition of bovine brain tubulin polymerization after 20 mins; design: species or system Bos taurus
[2] = system: MCF7; experiment: Cytotoxicity against human MCF7 cells after 48 hrs by MTT assay; format: functional, cell-based; conditions: MCF7, 48 h
[3] = system: MCF7; experiment: Cell cycle arrest in human MCF7 cells assessed as accumulation at G1 phase at 25 nM after 24 hrs by flow cytometry; format: functional
[4] = system: MCF7; experiment: Cell cycle arrest in human MCF7 cells assessed as accumulation at S phase at 25 nM after 24 hrs by flow cytometry; format: functional
[5] = system: MCF7; experiment: Cell cycle arrest in human MCF7 cells assessed as accumulation at G2/M phase at 25 nM after 24 hrs by flow cytometry; format: functional
[6] = system: MCF7; experiment: Cell cycle arrest in human MCF7 cells assessed as accumulation at G1 phase at 250 nM after 24 hrs by flow cytometry; format: functional
[7] = system: MCF7; experiment: Cell cycle arrest in human MCF7 cells assessed as accumulation at S phase at 250 nM after 24 hrs by flow cytometry; format: functional
[8] = system: MCF7; experiment: Cell cycle arrest in human MCF7 cells assessed as accumulation at G2/M phase at 250 nM after 24 hrs by flow cytometry; format: functional

Compound: CCN(CC)C(=S)SC(CC(=O)c1ccccc1)c1ccc(Br)cc1 (configuration not stated)
- IC50 [1]: 12 µM
- IC50 [2]: 0.08 µM

Compound: CCN(CC)C(=S)SC(CC(=O)c1ccccc1)c1ccc(C)cc1 (configuration not stated)
- IC50 [1]: 220 µM
- IC50 [2]: 20 µM

Compound: COc1cc2c(c(OC)c1OC)-c1ccc(OC)c(=O)cc1[C@@H](NC(C)=O)CC2 [COLCHICINE]
- IC50 [1]: 3.2 µM
- Activity [3]: 24.31%
- Activity [4]: 15.96%
- Activity [5]: 32.28%
- IC50 [2]: 0.017 µM

Compound: CCN(CC)C(=S)SC(CC(=O)c1ccccc1)c1cccc([N+](=O)[O-])c1 (configuration not stated)
- IC50 [1]: 90 µM
- IC50 [2]: 9 µM

Compound: CCN(CC)C(=S)SC(CC(=O)c1ccc(OC)cc1)c1ccccc1Cl (configuration not stated)
- IC50 [1]: 10 µM
- IC50 [2]: 0.07 µM

Compound: CCN(CC)C(=S)SC(CC(=O)c1ccc(Cl)c(Cl)c1)c1ccccc1 (configuration not stated)
- IC50 [1]: 60 µM
- IC50 [2]: 4.5 µM

Compound: CCN(CC)C(=S)SC(CC(=O)c1ccccc1)c1ccccc1OC (configuration not stated)
- IC50 [1]: 150 µM
- IC50 [2]: 16 µM

Compound: CCN(CC)C(=S)SC(CC(=O)c1ccccc1)c1ccccc1Cl (configuration not stated)
- IC50 [1]: 52 µM
- IC50 [2]: 4.5 µM

Compound: CCN(CC)C(=S)SC(CC(=O)c1ccccc1)c1ccccc1 (configuration not stated)
- IC50 [1]: 130 µM
- IC50 [2]: 17 µM

Compound: CCN(CC)C(=S)SC(CC(=O)c1ccccc1)c1ccc(OC)cc1 (configuration not stated)
- IC50 [1]: 45 µM
- IC50 [2]: 4.6 µM

Compound: COc1ccc(/C=C\c2cc(OC)c(OC)c(OC)c2)cc1O [COMBRETASTATIN A4]
- IC50 [1]: 2.2 µM

Compound: CCN(CC)C(=S)SC(CC(=O)c1ccccc1)c1ccc(Cl)cc1 (configuration not stated)
- IC50 [1]: 15 µM
- IC50 [2]: 0.12 µM

Compound: CCN(CC)C(=S)SC(CC(=O)c1ccc(Br)cc1)c1ccc(F)cc1 (configuration not stated)
- IC50 [1]: 18 µM
- IC50 [2]: 1 µM

Compound: CCN(CC)C(=S)SC(CC(=O)c1ccc(OC)cc1)c1ccccc1 (configuration not stated)
- IC50 [1]: 62 µM
- IC50 [2]: 4.5 µM

Compound: CCN(CC)C(=S)SC(CC(C)=O)c1ccccc1 (configuration not stated)
- IC50 [1]: 250 µM
- IC50 [2]: 23 µM

Compound: CCN(CC)C(=S)SC(CC(=O)c1ccc(OC)cc1)c1ccc(C)cc1 (configuration not stated)
- IC50 [1]: 180 µM
- IC50 [2]: 17 µM

Compound: CCN(CC)C(=S)SC(CC(=O)c1ccc(OC)cc1)c1ccc(OC)cc1 (configuration not stated)
- IC50 [1]: 84 µM
- IC50 [2]: 0.8 µM

Compound: CCN(CC)C(=S)SC(CC(=O)c1ccc(Br)cc1)c1ccc(OC)cc1 (configuration not stated)
- IC50 [1]: 52 µM
- IC50 [2]: 5 µM

Compound: CCN(CC)C(=S)SC(CC(=O)c1ccc(Cl)cc1)c1ccccc1 (configuration not stated)
- IC50 [1]: 6.8 µM
- Activity [3]: 50.86%
- Activity [4]: 16.28%
- Activity [5]: 19.99%
- Activity [6]: 12.86%
- Activity [7]: 12.22%
- Activity [8]: 39.54%
- IC50 [2]: 0.04 µM

Compound: CCN(CC)C(=S)SC(CC(=O)c1ccc(Br)cc1)c1ccccc1 (configuration not stated)
- IC50 [1]: 65 µM
- IC50 [2]: 5 µM

Compound: CCN(CC)C(=S)SC(CC(=O)c1ccccc1)c1ccc(F)cc1 (configuration not stated)
- IC50 [1]: 80 µM
- IC50 [2]: 0.7 µM

Compound: CCN(CC)C(=S)SC(CC(=O)c1ccc(OC)cc1)c1ccc(Cl)cc1 (configuration not stated)
- IC50 [1]: 140 µM
- IC50 [2]: 16 µM
